Source: PubChem BioAssay AID1919014 (Molecular Pharmacology Branch, DTP, NCI, 2023)
Where “and” joins values, the source holds several entries; their conditions need not be identical. Identical values can stand only once. One block for each molecule: values may come before it.

Tested on: NCI-H1341 complex spheroids, percent test/control
Experiment: Anticancer human tumor NCI-H1341 cell line growth inhibition [AhR];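 note: spheroids exposed to agents for seven days before readout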
Details: for viability, T/C: stronger effect = lower value
Description: Multicellular complex tumor spheroid response to aryl hydrocarbon receptor antagonists in combination with a variety of drugs and investigational agents in selected tumor cell lines
The current study was undertaken to assess response to aryl hydrocarbon receptor antagonists in combination with standard-of-care drugs and investigational agents in solid tumor complex spheroid models. Complex spheroids include a stromal component modeled by human endothelial cells (HUVEC) and fibroblasts modeled by human mesenchymal stem cells (MSCs). The concentration ranges selected for each drug and investigational agent were based upon clinically achievable concentrations if the clinical Cmax of the agent was known.
Compounds. The drugs and investigational agents: BAY 2416964 (NSC825713), GNF351 (NSC835774), CH-223191 (NSC835775), CPI-455 (NSC825282), aza-TdCyd (NSC777586), decitabine (NSC127716), belinostat (NSC758774), entinostat (NSC756642), pevonedistat (NSC761192), tazemetostat (NSC777109), talazoparib (NSC765396), olaparib (NSC753686), selinexor (NSC780203), nedisertib (M3814, NSC802822), bortezomib (NSC756655), venetoclax (NSC766270), doxorubicin (NSC123127), elimusertib (BAY189344, NSC800525), ceralasertib (AZD6738, NSC777638), TAK-243 (NSC785004), alisertib (NSC759677), etoposide (NSC141540), topotecan (NSC609699), eribulin (NSC707389), gemcitabine (NSC613327), carboplatin (NSC241240), cisplatin (NSC119875), and SN-38 (NSC673596) were obtained from the National Cancer Institute (NCI) Developmental Therapeutics Program Chemical Repository (32). The FDA-approved anticancer drug set is available from the Developmental Therapeutics Program at https://dtp.cancer.gov/organization/dscb/obtaining/available plates.htm. […] The stock solutions were prepared in dimethyl sulfoxide (DMSO, Sigma-Aldrich, St. Louis, MO, cat. D2650), except for the platinum compounds which were prepared in saline (Quality Biological, Gaithersburg, MD, cat. 114-055-101), at 800-fold the tested concentration and stored at -70 degrees C prior to their use. All drugs and investigational agents were tested over a range starting from a high concentration at or near the clinical Cmax and decreasing in half-log increments. If the clinical Cmax for an agent had not been determined, the highest concentration tested was 10 microM (Table 1).
Cell Culture. All cells were maintained in an incubator at 37 degrees C and 5% CO2 with 95% humidity. The PDC lines were cultured according to standard operating procedures established by the NCI PDMR (https://pdmr.cancer.gov). Briefly, all PDCs were thawed and cultured in Matrigel-coated flasks prepared with a working solution of 1X Ham's F-12 nutrient mix, without supplementation (Invitrogen, Waltham, MA, cat. 11765054), 100 U/mL penicillin-streptomycin (Invitrogen, cat. 15140122), and 2.5% Matrigel (Corning Inc., Corning, NY, cat. 354248) for the first three passages. All PDCs were cultured in complete DMEM/F-12 media containing advanced DMEM/F-12 (Invitrogen, cat. 12634028), 4.9% defined fetal bovine serum, heat inactivated (HyClone Laboratories Inc., Logan, UT, cat. SH30070.03HI), 389 ng/mL hydrocortisone (Sigma-Aldrich, cat. H4001), 9.7 ng/mL human EGF recombinant protein (Invitrogen, cat. PHG0313), 23.4 microg/mL adenine (Sigma-Aldrich, cat. A2786), 97.3 U/mL penicillin-streptomycin (Invitrogen, cat. 15140122), 1.9 mM L-glutamine (Invitrogen, cat. 25030081), and 9.7 microM Y-27632 dihydrochloride (Tocris Bioscience, Bristol, United Kingdom, cat. 1254). The PDCs were cultured in complete DMEM/F12 media without 10 microM Y-27632 dihydrochloride for at least two passages prior to the screen. The established cell lines NCI-H1341 and […] were cultured in DMEM/F-12, HEPES (Invitrogen, cat. 11330032), 5% defined fetal bovine serum (HyClone Laboratories Inc., cat. SH30070.03), ITS premix universal culture supplement [insulin (5 microg/mL), transferrin (5 microg/mL), and selenious acid (5 ng/mL)] […]

SMILES: CC(C)c1c(-c2ccccc2)nc2c(C#N)c[nH]n2c1=O
viability, T/C (compound 0.0316 µM): 105% (2×) and 130%
viability, T/C (compound 0.1 µM): 93.4% and 104% and 101%
viability, T/C (compound 0.316 µM): 90% and 98.5% and 101%
viability, T/C (compound 1 µM): 88.2% and 103% and 97.3%
viability, T/C (compound 3.16 µM): 100% and 82.5% and 90.3%
viability, T/C (compound 10 µM): 78% and 92% and 91.9%
IC50 (curve of compound): > 10000 nM

SMILES: CC(CO)NC(=O)c1cc(-c2ccc(Cl)cc2)nn(-c2cnn(C)c2)c1=O (stereo not drawn)
viability, T/C (compound 10 µM): 78.7% [middle of 19 runs]
IC50 (compound alone, run of 07/12/2022): > 10000 nM

SMILES: COc1cc(Nc2ncc3c(n2)-c2ccc(Cl)cc2C(c2c(F)cccc2OC)=NC3)ccc1C(=O)O
viability, T/C (compound 0.0316 µM): 33% and 48.4% and 43.1%
viability, T/C (compound 0.1 µM): 43.8% and 51.7% and 43%
viability, T/C (compound 0.316 µM): 37% and 43.2% and 50.4%
viability, T/C (compound 1 µM): 29.6% and 37.5% and 36.1%
viability, T/C (compound 3.16 µM): 27.7% and 28% and 29.3%
viability, T/C (compound 10 µM): 22.2% and 26.8% and 26.4%
IC50 (curve of compound): < 31.6 nM

The next lines start with results.

IC50 (curve of compound): > 100 nM
SMILES: Cn1ncnc1C1c2n[nH]c(=O)c3cc(F)cc(c23)NC1c1ccc(F)cc1 (stereo not drawn)
viability, T/C (compound 0.000316 µM): 125% and 98% and 95.9%
viability, T/C (compound 0.001 µM): 88.8% and 101% and 99%
viability, T/C (compound 0.00316 µM): 97.2% and 99.4% and 99.8%
viability, T/C (compound 0.01 µM): 96.9% and 109% and 95.9%
viability, T/C (compound 0.0316 µM): 85.5% and 74% and 100%
viability, T/C (compound 0.1 µM): 89.4% and 76.9% and 71.7%

IC50 (curve of first compound, second compound 0.1 µM): 1470 nM
IC50 (curve of first compound, second compound 0.316 µM): 1140 nM
IC50 (curve of first compound, second compound 1 µM): 1060 nM
IC50 (curve of first compound, second compound 3.16 µM): 1220 nM
IC50 (curve of first compound, second compound 10 µM): 691 nM
SMILES: COc1ccc([C@@H](O)c2cc(-c3ncnc4cc(N5CCOCC5)ccc34)c(F)cc2Cl)nn1 + CC(CO)NC(=O)c1cc(-c2ccc(Cl)cc2)nn(-c2cnn(C)c2)c1=O
viability, T/C (second compound 0.1 µM, first compound 0.0316 µM): 101%
viability, T/C (second compound 0.1 µM, first compound 0.1 µM): 89.7%
viability, T/C (second compound 0.1 µM, first compound 0.316 µM): 82.5%
viability, T/C (second compound 0.1 µM, first compound 1 µM): 61%
viability, T/C (second compound 0.1 µM, first compound 3.16 µM): 29.6%
viability, T/C (second compound 0.1 µM, first compound 10 µM): 8.94%
viability, T/C (second compound 0.316 µM, first compound 0.0316 µM): 88%
viability, T/C (second compound 0.316 µM, first compound 0.1 µM): 93.7%
viability, T/C (second compound 0.316 µM, first compound 0.316 µM): 72.7%
viability, T/C (second compound 0.316 µM, first compound 1 µM): 48.8%
viability, T/C (second compound 0.316 µM, first compound 3.16 µM): 32.7%
viability, T/C (second compound 0.316 µM, first compound 10 µM): 8.73%
viability, T/C (second compound 1 µM, first compound 0.0316 µM): 89.7%
viability, T/C (second compound 1 µM, first compound 0.1 µM): 83.8%
viability, T/C (second compound 1 µM, first compound 0.316 µM): 76.6%
viability, T/C (second compound 1 µM, first compound 1 µM): 48.2%
viability, T/C (second compound 1 µM, first compound 3.16 µM): 28.2%
viability, T/C (second compound 1 µM, first compound 10 µM): 8.67%
viability, T/C (second compound 3.16 µM, first compound 0.0316 µM): 79.6%
viability, T/C (second compound 3.16 µM, first compound 0.1 µM): 84.8%
viability, T/C (second compound 3.16 µM, first compound 0.316 µM): 85.9%
viability, T/C (second compound 3.16 µM, first compound 1 µM): 52.7%
viability, T/C (second compound 3.16 µM, first compound 3.16 µM): 24%
viability, T/C (second compound 3.16 µM, first compound 10 µM): 7.24%
viability, T/C (second compound 10 µM, first compound 0.0316 µM): 90.2%
viability, T/C (second compound 10 µM, first compound 0.1 µM): 75.8%
viability, T/C (second compound 10 µM, first compound 0.316 µM): 68.2%
viability, T/C (second compound 10 µM, first compound 1 µM): 41.5%
viability, T/C (second compound 10 µM, first compound 3.16 µM): 22.1%
viability, T/C (second compound 10 µM, first compound 10 µM): 7.39%
